Test results: patent US20250144067A1, “PERSONALIZED STARVATION THERAPY FOR CANCER” (Faeth Therapeutics, Inc., priority 2021, published 2025)
Structures can show the parent of a compound that is named as a salt.

How the values were obtained:
[1] = tested on: NCI-H292 lung cancer cells; assay: FDA drug screening, complete media vs cholesterol-free media without statin (TABLE 1); format: cell-based, human
[2] = tested on: NCI-H292 lung cancer cells; assay: FDA drug screening, complete media vs cholesterol-free media with simvastatin (TABLE 2); format: cell-based, human; conditions: for Cholesterol-free media + simvastatin (0.04 μM) / Complete Media: NCI-H292 cells; for Difference: >0 enhanced anti-cancer activity, about 0 neutral, <0 antagonist
[3] = Complete minus Cholesterol-free; >0 enhanced anti-cancer activity, about 0 neutral, <0 antagonist
[4] = NCI-H292 cells, cholesterol-free media without statin
[5] = FDA drug library screen, cholesterol-free media with simvastatin 0.04 μM
[6] = FDA drug library screen, complete media
[7] = complete media minus cholesterol-free media + simvastatin
[8] = NCI-H292 cells, cholesterol-free media without statin, FDA drug library screen
[9] = NCI-H292 cells, complete media, FDA drug library screen
[10] = complete vs cholesterol-free media; >0 enhanced anti-cancer activity, about 0 neutral, <0 antagonist
[11] = Complete minus Cholesterol-free; greater than 0 enhanced anti-cancer activity, about 0 neutral, below 0 antagonist
[12] = NCI-H292 cells, FDA drug library screen, cholesterol-free media without statin
[13] = NCI-H292 cells, FDA drug library screen, complete media
[14] = cholesterol-free media with simvastatin 0.04 μM, cell growth value in FDA drug screen
[15] = complete media, cell growth value in FDA drug screen
[16] = complete vs cholesterol-free media; greater than 0 enhanced anti-cancer activity, about 0 neutral, below 0 antagonists
[17] = complete media vs cholesterol-free media + simvastatin (0.04 μM)
[18] = cholesterol-free media with simvastatin 0.04 μM, FDA drug library screen (TABLE 2)
[19] = complete media, FDA drug library screen (TABLE 2)
[20] = complete media minus cholesterol-free media + simvastatin (0.04 μM)
[21] = FDA library drug in cholesterol-free media with simvastatin 0.04 μM
[22] = FDA library drug in complete media

SMILES | Difference [1, 3] | Cholesterol-free media + simvastatin (0.04 μM) [2, 5] | Complete Media [2, 6] | Difference [2, 7] | Cholesterol-free [1, 8] | Complete [1, 9] | Difference [1, 10] | Difference [2, 17] | further results
O=c1[nH]c(=O)n(C2CCCO2)cc1F (stereo not drawn) [Tegafur] | −0.25 | 1.002 | 1.263 | 0.26 | – | – | – | – | Cholesterol-free [1, 4]: 0.9682; Complete ([1]; NCI-H292 cells, complete media): 0.7137
C[C@H](Cn1cnc2c(N)ncnc21)OCP(=O)(O)O.O [Tenofovir (hydrate)] | – | 1.824 | 2.099 | 0.27 | 0.8777 | 1.281 | 0.40 | – | –
CN(C)c1ccc2nc3ccc(=[N+](C)C)cc-3sc2c1 [Methylene blue (trihydrate)] | – | – | – | 0.05 | – | – | – | – | Difference [1, 11]: −0.18; Cholesterol-free [1, 12]: 0.4339; Complete [1, 13]: 0.2574; Cholesterol-free media + simvastatin (0.04 μM) [2, 14]: 0.3366; Complete Media [2, 15]: 0.39
CC1(C)S[C@@H]2[C@H](NC(=O)[C@H](N)c3ccc(O)cc3)C(=O)N2[C@H]1C(=O)O [Amoxicillin] | – | 0.9948 | 1.386 | 0.39 | 0.9555 | 1.159 | 0.20 | – | –
N[C@@H]1c2cccnc2[C@H](OC(=O)N2CCC(n3c(=O)[nH]c4ncccc43)CC2)CC[C@H]1c1cccc(F)c1F [Rimegepant] | – | – | – | – | – | – | – | −0.20 | Cholesterol-free [1, 4]: 1.457; Complete ([1]; NCI-H292 cells, complete media): 0.9844; Difference [1, 16]: −0.47; Cholesterol-free media + simvastatin (0.04 μM) ([2]; drug in cholesterol-free media with simvastatin 0.04 μM): 1.311; Complete Media ([2]; drug in complete media): 1.114
C=CC(N)CCC(=O)O (stereo not drawn) [Vigabatrin] | – | – | – | – | 0.7255 | 1.221 | 0.50 | – | Cholesterol-free media + simvastatin (0.04 μM) [2, 18]: 0.8099; Complete Media [2, 19]: 0.7743; Difference [2, 20]: −0.04
NCCS(=O)(=O)O [Taurine] | – | – | – | – | 1.192 | 1.309 | 0.12 | −0.61 | Cholesterol-free media + simvastatin (0.04 μM) [2, 21]: 1.971; Complete Media [2, 22]: 1.363
CC(C)OC(=O)OCOP(=O)(CO[C@H](C)Cn1cnc2c(N)ncnc21)OCOC(=O)OC(C)C.O=C(O)/C=C/C(=O)O [Tenofovir (Disoproxil Fumarate)] | – | – | – | – | – | – | – | −0.60 | Cholesterol-free [1, 4]: 1.163; Complete ([1]; NCI-H292 cells, complete media): 0.7425; Difference [1, 16]: −0.42; Cholesterol-free media + simvastatin (0.04 μM) [2, 21]: 1.321; Complete Media [2, 22]: 0.7221
CC(=O)O[C@@]12CO[C@@H]1C[C@H](O)[C@@]1(C)C(=O)[C@H](O)C3=C(C)[C@@H](OC(=O)[C@H](O)[C@@H](NC(=O)OC(C)(C)C)c4ccccc4)C[C@@](O)([C@@H](OC(=O)c4ccccc4)[C@H]21)C3(C)C [Docetaxel (Trihydrate)] | −0.05 | 0.3708 | 0.2794 | – | 0.2507 | 0.2029 | – | −0.09 | –
C#Cc1cccc(Nc2ncnc3cc4c(cc23)OCCOCCOCCO4)c1 [Icotinib (Hydrochloride)] | 0.05 | – | – | – | 0.2697 | 0.324 | – | – | Cholesterol-free media + simvastatin (0.04 μM) [2, 18]: 0.5866; Complete Media [2, 19]: 0.5343; Difference [2, 20]: −0.05
CC(=O)N[C@@H](Cc1ccc(O)cc1)C(=O)O [N-Acetyl-L-tyrosine] | – | 1.348 | 1.218 | – | – | – | – | −0.13 | Difference [1, 11]: −0.16; Cholesterol-free [1, 12]: 1.221; Complete [1, 13]: 1.059
CC(=O)Oc1c(C)cc(OCC(O)CNC(C)C)c(C)c1C (stereo not drawn) [Metipranolol hydrochloride] | 0.05 | – | – | 0.06 | 0.8441 | 0.893 | – | – | Cholesterol-free media + simvastatin (0.04 μM) [2, 14]: 0.8039; Complete Media [2, 15]: 0.8617
